Experimental data taken from the supplement of paper PMC10883282.

Key:
Experiment in all cases: relative viability vs DMSO control (72 h) (fraction); higher = more viable cells
[1] = tested on: SW872
How it was run: (§1)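 A 5 µM positive control and 0.1% DMSO vehicle ran alongside sarcoma cell lines seeded in 384-well plates to reach 80–90% confluence. Serially diluted compound, 2.5 µl from source plates of 10 mM to 0.0002 mM, was added after 24 h, and the plates were held 72 h at 37 °C, 5% CO2. Relative viability was worked out from ATPLite readings as percent growth averaged over up to triplicate wells. The values were rescaled so that 1 is full and 0 is none.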

[2] = tested on: VA-ES-BJ
How it was run: as §1

[3] = tested on: SW1353
How it was run: as §1

[4] = tested on: A204
How it was run: as §1

[5] = tested on: SK-LMS-1
How it was run: as §1

[6] = tested on: G401
How it was run: as §1

[7] = tested on: KHOS-240S
How it was run: as §1

[8] = tested on: RD
How it was run: as §1

[9] = tested on: HS729
How it was run: as §1

[10] = tested on: SW982
How it was run: as §1

[11] = tested on: MES-SA
How it was run: as §1

[12] = tested on: SK-ES-1
How it was run: as §1

NC(=O)c1cccc2cn(-c3ccc([C@@H]4CCCNC4)cc3)nc12 [Niraparib]
Details	relative viability
[1], 0.00017 µM	1.02
[1], 0.00051 µM	1.04
[1], 0.00152 µM	1.03
[1], 0.00457 µM	1.04
[1], 0.01372 µM	0.997
[1], 0.04115 µM	1.01
[1], 0.1235 µM	1.05
[1], 0.3704 µM	1.07
[1], 1.111 µM	1.06
[1], 3.333 µM	1.07
[1], 10 µM	1.02
[2], 0.00017 µM	0.985
[2], 0.00051 µM	0.995
[2], 0.00152 µM	0.976
[2], 0.00457 µM	0.96
[2], 0.01372 µM	0.99
[2], 0.04115 µM	1.01
[2], 0.1235 µM	0.983
[2], 0.3704 µM	0.947
[2], 1.111 µM	0.915
[2], 3.333 µM	0.873
[2], 10 µM	0.708
[3], 0.00017 µM	0.976
[3], 0.00051 µM	0.981
[3], 0.00152 µM	0.969
[3], 0.00457 µM	0.958
[3], 0.01372 µM	0.927
[3], 0.04115 µM	0.965
[3], 0.1235 µM	0.956
[3], 0.3704 µM	0.964
[3], 1.111 µM	0.933
[3], 3.333 µM	0.942
[3], 10 µM	0.904
[4], 0.00017 µM	1.07
[4], 0.00051 µM	1.09
[4], 0.00152 µM	1.05
[4], 0.00457 µM	1.07
[4], 0.01372 µM	1.05
[4], 0.04115 µM	1.07
[4], 0.1235 µM	1.064
[4], 0.3704 µM	0.998
[4], 1.111 µM	0.964
[4], 3.333 µM	0.885
[4], 10 µM	0.691
[5], 0.00017 µM	1.08
[5], 0.00051 µM	1.12
[5], 0.00152 µM	1.1
[5], 0.00457 µM	1.12
[5], 0.01372 µM	1.12
[5], 0.04115 µM	1.13
[5], 0.1235 µM	1.12
[5], 0.3704 µM	1.1
[5], 1.111 µM	1.09
[5], 3.333 µM	1.03
[5], 10 µM	0.966
[6], 0.00017 µM	0.962
[6], 0.00051 µM	0.988
[6], 0.00152 µM	1.01
[6], 0.00457 µM	0.9908
[6], 0.01372 µM	0.993
[6], 0.04115 µM	1.03
[6], 0.1235 µM	0.967
[6], 0.3704 µM	0.97
[6], 1.111 µM	0.93
[6], 3.333 µM	0.929
[6], 10 µM	0.852
[7], 0.00017 µM	1.06
[7], 0.00051 µM	1.08
[7], 0.00152 µM	1.07
[7], 0.00457 µM	1.07
[7], 0.01372 µM	1.06
[7], 0.04115 µM	1.07
[7], 0.1235 µM	1.06
[7], 0.3704 µM	1.06
[7], 1.111 µM	1.03
[7], 3.333 µM	1.01
[7], 10 µM	0.877
[8], 0.00017 µM	1.06
[8], 0.00051 µM	1.09
[8], 0.00152 µM	1.1
[8], 0.00457 µM	1.117
[8], 0.01372 µM	1.09
[8], 0.04115 µM	1.12
[8], 0.1235 µM	1.08
[8], 0.3704 µM	1.05
[8], 1.111 µM	1.006
[8], 3.333 µM	0.899
[8], 10 µM	0.784
[9], 0.00017 µM	0.876
[9], 0.00051 µM	0.894
[9], 0.00152 µM	0.893
[9], 0.00457 µM	0.89
[9], 0.01372 µM	0.886
[9], 0.04115 µM	0.869
[9], 0.1235 µM	0.917
[9], 0.3704 µM	0.868
[9], 1.111 µM	0.884
[9], 3.333 µM	0.877
[9], 10 µM	0.801
[10], 0.00017 µM	1.05
[10], 0.00051 µM	1.04
[10], 0.00152 µM	1.05
[10], 0.00457 µM	1.02
[10], 0.01372 µM	1.06
[10], 0.04115 µM	1.07
[10], 0.1235 µM	1.06
[10], 0.3704 µM	1.01
[10], 1.111 µM	0.926
[10], 3.333 µM	0.791
[10], 10 µM	0.635
[11], 0.00017 µM	0.9156
[11], 0.00051 µM	0.898
[11], 0.00152 µM	0.868
[11], 0.00457 µM	0.918
[11], 0.01372 µM	0.882
[11], 0.04115 µM	0.893
[11], 0.1235 µM	0.876
[11], 0.3704 µM	0.8654
[11], 1.111 µM	0.824
[11], 3.333 µM	0.774
[11], 10 µM	0.598
[12], 0.00017 µM	1.02
[12], 0.00051 µM	1.02
[12], 0.00152 µM	1.01
[12], 0.00457 µM	1.01
[12], 0.01372 µM	1.02
[12], 0.04115 µM	0.975
[12], 0.1235 µM	0.8976
[12], 0.3704 µM	0.822
[12], 1.111 µM	0.525
[12], 3.333 µM	0.311
[12], 10 µM	0.0804
